Patent publication US20240158446A1, “CYCLIC COMPOUND HAVING SELECTIVE INHIBITORY ACTION ON KRAS OVER HRAS AND NRAS” (CHUGAI SEIYAKU KABUSHIKI KAISHA, priority 2021, published 2024)

Experiments:
[1] = target: GDP-bound KRAS wild-type protein (Homo sapiens, UniProt P01116); test: Binding to KRAS by surface plasmon resonance (SPR), Single Cycle Kinetics; conditions: SPR, Single Cycle Kinetics, GDP-bound KRAS wild-type protein; read-out: KRAS KD
[2] = target: GDP-bound HRAS wild-type protein (Homo sapiens, UniProt P01112); test: Binding to HRAS by surface plasmon resonance (SPR), Single Cycle Kinetics; conditions: SPR, GDP-bound HRAS wild-type protein vs GDP-bound KRAS wild-type protein
[3] = target: GDP-bound NRAS wild-type protein (Homo sapiens, UniProt P01111); test: Binding to NRAS by surface plasmon resonance (SPR), Single Cycle Kinetics; conditions: SPR, GDP-bound NRAS wild-type protein vs GDP-bound KRAS wild-type protein
Chain of GDP-bound NRAS wild-type protein (P01111 whole entry): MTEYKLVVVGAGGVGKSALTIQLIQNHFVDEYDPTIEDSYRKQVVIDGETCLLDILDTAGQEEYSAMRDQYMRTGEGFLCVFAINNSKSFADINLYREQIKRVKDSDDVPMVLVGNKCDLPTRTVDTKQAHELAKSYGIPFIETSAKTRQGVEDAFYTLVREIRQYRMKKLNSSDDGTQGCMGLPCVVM

Chain of GDP-bound HRAS wild-type protein (P01112 whole entry): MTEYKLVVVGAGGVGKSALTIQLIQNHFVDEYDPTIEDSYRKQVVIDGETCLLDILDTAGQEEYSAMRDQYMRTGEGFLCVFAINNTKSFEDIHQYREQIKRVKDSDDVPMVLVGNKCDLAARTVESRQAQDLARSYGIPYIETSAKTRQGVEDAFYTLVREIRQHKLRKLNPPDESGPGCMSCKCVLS
Chain of GDP-bound KRAS wild-type protein (P01116 whole entry): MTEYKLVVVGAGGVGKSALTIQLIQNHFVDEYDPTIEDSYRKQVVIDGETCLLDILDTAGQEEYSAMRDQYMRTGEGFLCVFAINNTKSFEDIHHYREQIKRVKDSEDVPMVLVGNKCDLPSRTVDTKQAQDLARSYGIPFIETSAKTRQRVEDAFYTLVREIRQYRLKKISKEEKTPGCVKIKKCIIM

Row | Structure (SMILES) | Kd [1] [nM] | HRAS/KRAS (ratio of KD value for HRAS to KD value for KRAS) [2] | NRAS/KRAS (ratio of KD value for NRAS to KD value for KRAS) [3]
1 | CCO[C@@H]1C[C@H]2C(=O)NC3(CCC3)C(=O)N(C)[C@@H](C3CCCC3)C(=O)N(C)[C@H](C(=O)N(C)C)CC(=O)N(C)[C@@H](CC)C(=O)N[C@@H]([C@@H](C)CC)C(=O)N(C)CC(=O)N(C)[C@H]3CCCCN(C3=O)[C@@H](Cc3ccc(C(F)(F)F)cc3)C(=O)N(C)CC(=O)N[C@@H](CCc3cc(Cl)c(Cl)c(Cl)c3)C(=O)N2C1 [PP0988] | 0.046 | B (a compound having 3 or more and less than 10 is denoted as B) | C (A compound having a KD ratio of 0.1 or more and less than 3 is denoted as C)
2 | CCO[C@@H]1C[C@H]2C(=O)NC3(CCC3)C(=O)N(C)[C@@H](C3CCCC3)C(=O)N(C)[C@H](C(=O)N(C)C)CC(=O)N(C)[C@@H](CC)C(=O)N[C@@H]([C@@H](C)CC)C(=O)N(C)CC(=O)N(C)[C@H]3CCCCCN(C3=O)[C@@H](Cc3ccc(C(F)(F)F)cc3)C(=O)N(C)CC(=O)N[C@@H](CCc3cc(Cl)c(C(F)(F)F)c(Cl)c3)C(=O)N2C1 [PP0989] | 1.3 | B (a compound having 3 or more and less than 10 is denoted as B) | B (a compound having 3 or more and less than 10 is denoted as B)
3 | CCO[C@@H]1C[C@H]2C(=O)N[C@]3(C)CCCCCC[C@@H](C(=O)N[C@@H]([C@@H](C)CC)C(=O)N(C)CC(=O)N(C)[C@H]4CCCCN(C4=O)[C@@H](Cc4ccc(C(F)(F)F)cc4)C(=O)N(C)CC(=O)N[C@@H](CCc4cc(F)c(C(F)(F)F)c(F)c4)C(=O)N2C1)N(C)C(=O)C[C@@H](C(=O)N1CCOCC1)N(C)C(=O)[C@H](C1CCCC1)N(C)C3=O [PP0992] | 4.6 | B (a compound having 3 or more and less than 10 is denoted as B) | B (a compound having 3 or more and less than 10 is denoted as B)
4 | CCO[C@@H]1C[C@H]2C(=O)N[C@@]3(C)CCCCCCC[C@@H](C(=O)N[C@@H]([C@@H](C)CC)C(=O)N(C)CC(=O)N(C)[C@H]4CCCCN(C4=O)[C@@H](Cc4ccc(C(F)(F)F)cc4)C(=O)N(C)CC(=O)N[C@@H](CCc4cc(F)c(C(F)(F)F)c(F)c4)C(=O)N2C1)N(C)C(=O)C[C@@H](C(=O)N1CCOCC1)N(C)C(=O)[C@H](C1CCCC1)N(C)C3=O [PP0993] | 1.4 | B (a compound having 3 or more and less than 10 is denoted as B) | B (a compound having 3 or more and less than 10 is denoted as B)
5 | CCCCO[C@@H]1C[C@H]2C(=O)NC3(CCC3)C(=O)N(C)[C@@H](C3CCCC3)C(=O)N(C)[C@H](C(=O)N3CCOCC3)CC(=O)N(C)[C@@H](CC(C)C)C(=O)N[C@@H]([C@@H](C)CC)C(=O)N(C)CC(=O)N(C)[C@H]3CCCCN(C3=O)[C@@H](Cc3ccc(C(F)(F)F)cc3)C(=O)N(C)CC(=O)N[C@@H](CCc3cc(F)c(C(F)(F)F)c(F)c3)C(=O)N2C1 [PP0999] | 0.11 | B (a compound having 3 or more and less than 10 is denoted as B) | C (A compound having a KD ratio of 0.1 or more and less than 3 is denoted as C)
6 | CC[C@H](C)[C@@H]1NC(=O)[C@H](CC(C)C)N(C)C(=O)C[C@@H](C(=O)N2CCOCC2)N(C)C(=O)[C@H](C2CCCC2)N(C)C(=O)C2(CCC2)NC(=O)[C@@H]2C[C@@H](OCC(F)F)CN2C(=O)[C@H](CCc2cc(F)c(C(F)(F)F)c(F)c2)NC(=O)CN(C)C(=O)[C@H](Cc2ccc(C(F)(F)F)cc2)N2CCCC[C@@H](C2=O)N(C)C(=O)CN(C)C1=O [PP1002] | 0.025 | B (a compound having 3 or more and less than 10 is denoted as B) | B (a compound having 3 or more and less than 10 is denoted as B)
7 | CCO[C@@H]1C[C@H]2C(=O)NC3(CCCC3)C(=O)N(C)[C@@H](C3CCCC3)C(=O)N(C)[C@H](C(=O)N(C)C)CC(=O)N(C)[C@@H](CC(C)C)C(=O)N[C@@H]([C@@H](C)CC)C(=O)N(C)CC(=O)N(C)[C@H]3C[C@@H](C)CCN(C3=O)[C@@H](Cc3ccc(C(F)(F)F)cc3)C(=O)N(C)CC(=O)N[C@@H](CCc3cc(F)c(C(F)(F)F)c(F)c3)C(=O)N2C1 [PP1017] | 0.048 | B (a compound having 3 or more and less than 10 is denoted as B) | C (A compound having a KD ratio of 0.1 or more and less than 3 is denoted as C)
8 | CCO[C@@H]1C[C@H]2C(=O)NC3(CCC3)C(=O)N(C)[C@@H](C3CCCC3)C(=O)N(C)[C@H](C(=O)N(C)C)CC(=O)N(C)[C@@H](CC(C)C)C(=O)N[C@@H]([C@@H](C)CC)C(=O)N3CC[C@H]3C(=O)N(C)[C@H]3C[C@@H](C)CCN(C3=O)[C@@H](Cc3ccc(C(F)(F)F)cc3)C(=O)N(C)CC(=O)N[C@@H](CCc3cc(F)c(C(F)(F)F)c(F)c3)C(=O)N2C1 [PP1019] | 0.055 | B (a compound having 3 or more and less than 10 is denoted as B) | C (A compound having a KD ratio of 0.1 or more and less than 3 is denoted as C)
9 | CCO[C@@H]1C[C@H]2C(=O)NC3(CCC3)C(=O)N(C)[C@@H](C3CCCC3)C(=O)N(C)[C@H](C(=O)N(C)C)CC(=O)N(C)[C@@H](CC)C(=O)N[C@@H]([C@@H](C)CC)C(=O)N(C)CC(=O)N(C)[C@H]3C[C@@H](C)CCN(C3=O)[C@@H](Cc3ccc(C(F)(F)F)cc3)C(=O)N(C)CC(=O)N[C@@H](CCc3cc(F)c(C(F)(F)F)c(F)c3)C(=O)N2C1 [PP1020] | 0.022 | B (a compound having 3 or more and less than 10 is denoted as B) | C (A compound having a KD ratio of 0.1 or more and less than 3 is denoted as C)

Continued, in another order:

Row | Kd [1] [nM] | Structure (SMILES) | HRAS/KRAS (ratio of KD value for HRAS to KD value for KRAS) [2] | NRAS/KRAS (ratio of KD value for NRAS to KD value for KRAS) [3]
10 | 0.1 | CC[C@H](C)[C@@H]1NC(=O)[C@H](CC(C)C)N(C)C(=O)C[C@@H](C(=O)N2CCOCC2)N(C)C(=O)[C@H](C2CCCC2)N(C)C(=O)C2(CCC2)NC(=O)[C@@H]2C[C@@H](OCC3CCCC3)CN2C(=O)[C@H](CCc2cc(F)c(C(F)(F)F)c(F)c2)NC(=O)CN(C)C(=O)[C@H](Cc2ccc(C(F)(F)F)cc2)N2CCCC[C@@H](C2=O)N(C)C(=O)CN(C)C1=O [PP1001] | B (a compound having 3 or more and less than 10 is denoted as B) | B (a compound having 3 or more and less than 10 is denoted as B)
11 | 0.076 | CC[C@H](C)[C@@H]1NC(=O)[C@H](CC(C)C)N(C)C(=O)C[C@@H](C(=O)N2CCOCC2)N(C)C(=O)[C@H](C2CCCC2)N(C)C(=O)C2(CCC2)NC(=O)[C@@H]2C[C@@H](OC)CN2C(=O)[C@H](CCc2cc(F)c(C(F)(F)F)c(F)c2)NC(=O)CN(C)C(=O)[C@H](Cc2ccc(C(F)(F)F)cc2)N2CCCC[C@@H](C2=O)N(C)C(=O)CN(C)C1=O [PP1003] | B (a compound having 3 or more and less than 10 is denoted as B) | C (A compound having a KD ratio of 0.1 or more and less than 3 is denoted as C)
12 | 3.7 | CCCCO[C@@H]1C[C@H]2C(=O)NC3(CCC3)C(=O)N(C)[C@@H](C3CCCC3)C(=O)N(C)[C@H](C(=O)N3CCOCC3)CC(=O)N(C)[C@@H](CC(C)C)C(=O)N[C@@H]([C@@H](C)CC)C(=O)N(C)CC(=O)N(C)[C@H]3CCCCCN(C3=O)[C@@H](Cc3ccc(C(F)(F)F)cc3)C(=O)N(C)CC(=O)N[C@@H](CCc3cc(F)c(C(F)(F)F)c(F)c3)C(=O)N2C1 [PP1004] | B (a compound having 3 or more and less than 10 is denoted as B) | B (a compound having 3 or more and less than 10 is denoted as B)
13 | 1.1 | CC[C@H](C)[C@@H]1NC(=O)[C@H](CC(C)C)N(C)C(=O)C[C@@H](C(=O)N2CCOCC2)N(C)C(=O)[C@H](C2CCCC2)N(C)C(=O)C2(CCC2)NC(=O)[C@@H]2C[C@@H](OCC3CC3)CN2C(=O)[C@H](CCc2cc(F)c(C(F)(F)F)c(F)c2)NC(=O)CN(C)C(=O)[C@H](Cc2ccc(C(F)(F)F)cc2)N2CCCCC[C@@H](C2=O)N(C)C(=O)CN(C)C1=O [PP1005] | A (a compound having 10 or more and less than 20 is denoted as A) | A (a compound having 10 or more and less than 20 is denoted as A)
14 | 5 | CC[C@H](C)[C@@H]1NC(=O)[C@H](CC(C)C)N(C)C(=O)C[C@@H](C(=O)N2CCOCC2)N(C)C(=O)[C@H](C2CCCC2)N(C)C(=O)C2(CCC2)NC(=O)[C@@H]2C[C@@H](OCC3CCCC3)CN2C(=O)[C@H](CCc2cc(F)c(C(F)(F)F)c(F)c2)NC(=O)CN(C)C(=O)[C@H](Cc2ccc(C(F)(F)F)cc2)N2CCCC[C@@H](C2=O)N(C)C(=O)CN(C)C1=O [PP1015] | C (A compound having a KD ratio of 0.1 or more and less than 3 is denoted as C) | C (A compound having a KD ratio of 0.1 or more and less than 3 is denoted as C)
15 | 0.27 | CC[C@H](C)[C@@H]1NC(=O)[C@H](CC(C)C)N(C)C(=O)C[C@@H](C(=O)N2CCOCC2)N(C)C(=O)[C@H](C2CCCC2)N(C)C(=O)C2(CCC2)NC(=O)[C@@H]2C[C@@H](OC)CN2C(=O)[C@H](CCc2cc(F)c(C(F)(F)F)c(F)c2)NC(=O)CN(C)C(=O)[C@H](Cc2ccc(C(F)(F)F)cc2)N2CCCCC[C@@H](C2=O)N(C)C(=O)CN(C)C1=O [PP1016] | B (a compound having 3 or more and less than 10 is denoted as B) | A (a compound having 10 or more and less than 20 is denoted as A)
